Measured values taken from US7868135B2, “Compositions of lipopeptide antibiotic derivatives and methods of use thereof” (priority 2003, dated 2011).
Starred links: 1 amine or outer side, 2 acyl side, 3 side chain; linkers in the order of their positions; H or OH if unused. Positions of bridges follow the written chain, without caps; N, C: chain ends. Non-standard residues stand in square brackets, D forms with d. Residues, ends and D or L forms follow the SMILES beside them. ξ: configuration not given here. *: point of attachment. Adamantane1carbonyl = O=C(C12CC3CC(CC(C3)C1)C2)*; X29 = COCCOCCOCC(=O)NC(C)C(N[*:1])C(=O)[*:2]; ξAbu(βξ-NH2) = CC(N[*:3])C(N[*:1])C(=O)[*:2]; Pentadecanoyl = CCCCCCCCCCCCCCC(=O)*; ξAsp(βξ-Me) = CC(C(=O)O)C(N)C(=O)O; ξAbu(3ξ-NH2) = CC(N)C(N)C(=O)O; Pip = O=C(O)[CH]1CCCCN1

Each molecule was assayed on Staphylococcus aureus (MSSA). Settings: 24 h.
Procedure, shortened: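 Broth microdilution MIC per NCCLS M7-A6 with doubling serial dilutions, in cation-adjusted Mueller-Hinton broth supplemented with 0.625 mM calcium.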

MIC, 64 µg/mL:
CCCCCCCCCCCCCCC(=O)NC(CC(=O)O)C(=O)NC1C(=O)N2CCCCC2C(=O)NC(C(C)C(=O)O)C(=O)NC(CC(=O)O)C(=O)NCC(=O)NC(CC(=O)O)C(=O)NCC(=O)NC(C(C)NC(=O)COCCOCCOC)C(=O)NC(C(C)C)C(=O)N2CCCC2C(=O)NC1C (stereo not drawn) [Compound 343, C15-Amphomycin-9-([2-(2-Methoxy-Ethoxy)-Ethoxy]-Acetyl)] (Pentadecanoyl-D[ξAbu(βξ-NH2)][Pip][ξAsp(βξ-Me)]DGDG[X29]VP; lactam 2-C; configuration not given here)
CCCCCCCCCCCCCC(=O)N(C)CC(=O)NC(CC(=O)O)C(=O)NC1C(=O)N2CCCCC2C(=O)NC(C(C)C(=O)O)C(=O)NC(CC(=O)O)C(=O)NCC(=O)NC(CC(=O)O)C(=O)NCC(=O)NC(C(C)N)C(=O)NC(C(C)C)C(=O)N2CCCC2C(=O)NC1C (stereo not drawn) [Compound 345, C14-Sar-Amphomycin]

MIC, >64 µg/mL:
CC(C)C1NC(=O)C(C(C)N)NC(=O)CNC(=O)C(CC(=O)O)NC(=O)CNC(=O)C(CC(=O)O)NC(=O)C(C(C)C(=O)O)NC(=O)C2CCCCN2C(=O)C(NC(=O)C(CC(=O)O)NC(=O)C23CC4CC(CC(C4)C2)C3)C(C)NC(=O)C2CCCN2C1=O (stereo not drawn) [Compound 336] (Adamantane1carbonyl-D[ξAbu(βξ-NH2)][Pip][ξAsp(βξ-Me)]DGDG[ξAbu(3ξ-NH2)]VP; lactam 2-C; configuration not given here)
CCCCCCCCCCCCCCC(=O)NC(CC(=O)O)C(=O)NC1C(=O)N2CCCCC2C(=O)NC(C(C)C(=O)O)C(=O)NC(CC(=O)O)C(=O)NCC(=O)NC(CC(=O)O)C(=O)NCC(=O)NC(C(C)NC(=O)[C@@H](N)Cc2ccccc2)C(=O)NC(C(C)C)C(=O)N2CCCC2C(=O)NC1C (stereo partly drawn) [Compound 341, C15-Amphomycin-9-Phe]
CCCCCCCCCCCCCCC(=O)NC(CC(=O)O)C(=O)NC1C(=O)N2CCCCC2C(=O)NC(C(C)C(=O)O)C(=O)NC(CC(=O)O)C(=O)NCC(=O)NC(CC(=O)O)C(=O)NCC(=O)NC(C(C)NC(=O)CCCCCCCCCCCCCC)C(=O)NC(C(C)C)C(=O)N2CCCC2C(=O)NC1C (stereo not drawn) [Compound 342, C15-Amphomycin-9-C15]
CCCCCCCCCC(=O)N(C)CC(=O)NC(CC(=O)O)C(=O)NC1C(=O)N2CCCCC2C(=O)NC(C(C)C(=O)O)C(=O)NC(CC(=O)O)C(=O)NCC(=O)NC(CC(=O)O)C(=O)NCC(=O)NC(C(C)N)C(=O)NC(C(C)C)C(=O)N2CCCC2C(=O)NC1C (stereo not drawn) [Compound 344, C10-Sar-Amphomycin]
CCCCCCCC(=O)N(C)CC(=O)NC(CC(=O)O)C(=O)NC1C(=O)N2CCCCC2C(=O)NC(C(C)C(=O)O)C(=O)NC(CC(=O)O)C(=O)NCC(=O)NC(CC(=O)O)C(=O)NCC(=O)NC(C(C)N)C(=O)NC(C(C)C)C(=O)N2CCCC2C(=O)NC1C (stereo not drawn) [Compound 346, C8-Sar-Amphomycin]
CCCCCCCCCCCCCCC(=O)NC(CC(=O)O)C(=O)NC1C(=O)N2CCCCC2C(=O)NC(C(C)C(=O)O)C(=O)NC(CC(=O)O)C(=O)NCC(=O)NC(CC(=O)O)C(=O)NCC(=O)NC(C(C)NC(=O)CCCCCCCCCCC)C(=O)NC(C(C)C)C(=O)N2CCCC2C(=O)NC1C (stereo not drawn) [Compound 347, C15-Amphomycin-9-C12]

MIC, 0.5 µg/mL:
CCCCCCCCCCCCOc1cccc2ccc(C(=O)NC(CC(=O)O)C(=O)NC3C(=O)N4CCCCC4C(=O)NC(C(C)C(=O)O)C(=O)NC(CC(=O)O)C(=O)NCC(=O)NC(CC(=O)O)C(=O)NCC(=O)NC(C(C)N)C(=O)NC(C(C)C)C(=O)N4CCCC4C(=O)NC3C)nc12 (stereo not drawn) [Compound 339, (8-Dodecyloxy-Quinoline-2-Carbonyl)-Amphomycin]
